Test results reported in patent US12091425B2 (AMGEN INC., priority 2016, dated 2024).

Tests used:
[1] = test system: OPM-2 human multiple myeloma cell line; test: Cell Viability Assay (OPM-2 10 FBS); type: cell-based; settings: OPM-2 cells, CellTiter-Glo
In short: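 Plated at 3000 cells/well in 10% FBS complete medium, the cells received a serial compound dilution series and incubated 16 h at 37 °C with 5% CO2. CellTiter-Glo was then added; IC50 values were fitted with a logistic 4-parameter model.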

[2] = target: T1, Mcl-1/Bim interaction, recombinant human Mcl-1 (171-327) (Homo sapiens, UniProt Q07820); test: Cell free Mcl-1: Bim Affinity Assay (Mcl-1 HTRF); type: binding
T1 construct: made in house
In short: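 Biotin-Bim(51-76) peptide, TR-FRET readout, overnight incubation; IC50 from duplicate competition curves, 4-parameter fit.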

[3] = cell free Mcl-1:Bim TR-FRET, recombinant human Mcl-1 (171-327)
[4] = Homo sapiens, OPM-2, 16 h, 16 h
[5] = TR-FRET, 0.1 nM Mcl-1 (171-327), 0.05 nM biotin-Bim (51-76)
[6] = Homo sapiens, OPM-2, 16 h, 16 h incubation

T1 sequence (Q07820 171-327): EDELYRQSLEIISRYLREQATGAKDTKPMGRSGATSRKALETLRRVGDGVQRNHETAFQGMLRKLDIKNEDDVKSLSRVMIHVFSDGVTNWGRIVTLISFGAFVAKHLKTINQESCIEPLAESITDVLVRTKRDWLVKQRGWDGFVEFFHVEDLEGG

SMILES | IC50 [2, 3] | IC50 [1, 4] | IC50 [2, 5] | further results
COCC[C@@H]1C[C@H](C)/C=C/[C@H](OC)[C@@H]2CC[C@H]2CN2C[C@@]3(CCCc4cc(Cl)ccc43)COc3ccc(cc32)C(=O)NS1(=O)=O (single isomer, unassigned) [Example 485] | 0.471 nM |  |  | IC50 ([1]; 16 h): 558 nM
Cc1nnc(CCC2CCC=CC(O)C3CCC3CN3CC4(CCCc5cc(Cl)ccc54)COc4ccc(cc43)C(=O)NS2(=O)=O)o1 (single isomer, unassigned) [Example 632] | 0.187 nM | 878 nM |  | 
C[C@H]1C/C=C/[C@H](O)[C@@H]2CC[C@H]2CN2C[C@@]3(CCCc4cc(Cl)ccc43)COc3ccc(cc32)C(=O)NS(=O)(=O)N1C[C@@H]1CCCO1 (single isomer, unassigned) [Example 49] |  | 444 nM | 0.321 nM | 
CCC(OC1C=CCCC(C)S(=O)(=O)NC(=O)c2ccc3c(c2)N(CC2CCC21)CC1(CCCc2cc(Cl)ccc21)CO3)C(=O)N(C)C (single isomer, unassigned) [Example 419] |  | 310 nM | 0.333 nM | 
COCCO[C@H]1/C=C/[C@H](C)C[C@@H](C)S(=O)(=O)NC(=O)c2ccc3c(c2)N(C[C@@H]2CC[C@H]21)C[C@@]1(CCCc2cc(Cl)ccc21)CO3 [Example 1017, (1S,3′R,6′R,7′S,8′E,10′R,12′R)-6-chloro-7′-(2-methoxyethoxy)-10′,12′-dimethyl-3,4-dihydro-2H,15′H-spiro[naphthalene-1,22′-[20]oxa[13]thia[1,14]diazatetracyclo[14.7.2.0^3,6.0^19,24]pentacosa [8,16,18,24]tetraen]-15′-one 13′,13′-dioxide] |  |  | 0.339 nM | IC50 [1, 6]: 310 nM
CCN1CC/C=C/[C@H](OCc2cscn2)[C@@H]2CC[C@H]2CN2C[C@@]3(CCCc4cc(Cl)ccc43)COc3ccc(cc32)C(=O)NS1(=O)=O [Example 88, (1S,3′R,6′R,7′S,8′E)-6-chloro-12′-ethyl-7′-(1,3-thiazol-4-ylmethoxy)-3,4-dihydro-2H,15′H-spiro[naphthalene-1,22′-[20]oxa[13]thia[1,12,14]triazatetracyclo[14.7.2.0^3,6.0^19,24]pentacosa[8,16,18,24]tetraen]-15′-one 13′,13′-dioxide] |  | 1040 nM | 1.71 nM | 
CO[C@H]1/C=C/C[C@H](CO)[C@@H](C)S(=O)(=O)NC(=O)c2ccc3c(c2)N(C[C@@H]2CC[C@H]21)C[C@@]1(CCCc2cc(Cl)ccc21)CO3 [Example 1, (1S,3′R,6′R,7′S,8′E,11′R,12′R)-6-chloro-11′-(hydroxymethyl)-7′-methoxy-12′-methyl-3,4-dihydro-2H,15′H-spiro[naphthalene-1,22′-[20]oxa[13]thia[1,14]diazatetracyclo[14.7.2.0^3,6.0^19,24]pentacosa [8,16,18,24]tetraen]-15′-one 13′,13′-dioxide] |  | 254 nM | 0.34 nM | 
C[C@@H]1[C@@H](C)C/C=C/[C@H](OCCN2CCOC2=O)[C@@H]2CC[C@H]2CN2C[C@@]3(CCCc4cc(Cl)ccc43)COc3ccc(cc32)C(=O)NS1(=O)=O [Example 729, (1S,3′R,6′R,7′S,8′E,11′S,12′R)-6-chloro-11′,12′-dimethyl-7′-(2-(2-oxo-1,3-oxazolidin-3-yl)ethoxy)-3,4-dihydro-2H,15′H-spiro[naphthalene-1,22′-[20]oxa[13]thia[1,14]diazatetracyclo[14.7.2.0^3,6.0^19,24]pentacosa [8,16,18,24]tetraen]-15′-one-13′, 13′-dioxide] | 0.311 nM | 118 nM |  | 
C[C@H]1[C@H](C)CC[C@H](O)[C@@H]2CC[C@H]2CN2C[C@@]3(CCCc4cc(Cl)ccc43)COc3ccc(cc32)C(=O)NS(=O)(=O)[C@@H]1C [Example 1046, (1S,3′R,6′R,7′S,10′R,11′S,12′R)-6-chloro-7′-hydroxy-10′,11′,12′-trimethyl-3,4-dihydro-2H,15′H-spiro[naphthalene-1,22′-[20]oxa[13]thia[1,14]diazatetracyclo[14.7.2.0^3,6.0^19,24]pentacosa [16,18,24]trien]-15′-one 13′,13′-dioxide] |  |  | 0.785 nM | IC50 [1, 6]: 2520 nM
CCC1C(C)C(C)C=CC(O)C2CCC2CN2CC3(CCCc4cc(Cl)ccc43)COc3ccc(cc32)C(=O)NS1(=O)=O (single isomer, unassigned) [Example 1054] |  |  | 0.211 nM | IC50 ([1]; 16 h incubation): 101 nM
Cn1cnc(CO[C@@H]2/C=C/CCCS(=O)(=O)NC(=O)c3ccc4c(c3)N(C[C@@H]3CC[C@H]32)C[C@@]2(CCCc3cc(Cl)ccc32)CO4)n1 [Example 215, (1S,3′R,6′R,7′R,8′E)-6-chloro-7′-((1-methyl-1H-1,2,4-triazol-3-yl)methoxy)-3,4-dihydro-2H,15′H-spiro[naphthalene-1,22′-[20]oxa[13]thia[1,14]diazatetracyclo[14.7.2.0^3,6.0^19,24]pentacosa [8,16,18,24]tetraen]-15′-one 13′,13′-dioxide] |  | 8740 nM | 1.32 nM | 
O=C1NS(=O)(=O)C[C@@H]2C[C@@H]2/C=C/[C@H](O)[C@@H]2CC[C@H]2CN2C[C@@]3(CCCc4cc(Cl)ccc43)COc3ccc1cc32 (single isomer, unassigned) [Example 784] | 2.69 nM |  |  | IC50 ([1]; 16 h): 14200 nM
C[C@@H]1[C@@H](C)C/C=C/[C@H](OCCNS(C)(=O)=O)[C@@H]2CC[C@H]2CN2C[C@@]3(CCCc4cc(Cl)ccc43)COc3ccc(cc32)C(=O)NS1(=O)=O [Example 735, N-(2-(((1S,3′R,6′R,7′S,8′E,11′S,12′R)-6-chloro-11′,12′-dimethyl-13′, 13′-dioxido-15′-oxo-3,4-dihydro-2H-spiro[naphthalene-1,22′-[20]oxa[13]thia[1,14]diazatetracyclo[14.7.2.0^3,6.0^19,24]pentacosa[8,16,18,24]tetraen]-7′-yl)oxy)ethyl)Methanesulfonamide] | 0.681 nM | 202 nM |  | 
CCC1CCC(OC)C=CC2CCC2CN2CC3(CCCc4cc(Cl)ccc43)COc3ccc(cc32)C(=O)NS1(=O)=O (single isomer, unassigned) [Example 199] |  | 10200 nM | 6.04 nM | 
C[C@@H]1[C@@H](C)C/C=C/[C@H](OC[C@@H](C)O)[C@@H]2CC[C@H]2CN2C[C@@]3(CCCc4cc(Cl)ccc43)COc3ccc(cc32)C(=O)NS1(=O)=O (single isomer, unassigned) [Example 528] | 0.253 nM |  |  | IC50 ([1]; 16 h): 69.6 nM
O=C1NS(=O)(=O)N(Cc2ncco2)CC/C=C/[C@H](O)[C@@H]2CC[C@H]2CN2C[C@@]3(CCCc4cc(Cl)ccc43)COc3ccc1cc32 [Example 694, (1S,3′R,6′R,7′S,8′E)-6-chloro-7′-hydroxy-12′-(1,3-oxazol-2-ylmethyl)-3,4-dihydro-2H,15′H-spiro[naphthalene-1,22′-[20]oxa[13]thia[1,12,14]triazatetracyclo[14.7.2.0^3,6.0^19,24]pentacosa[8,16,18,24]tetraen]-15′-one 13′,13′-dioxide] | 0.763 nM | 968 nM |  | 
COCCO[C@H]1/C=C/C[C@H](C)N(Cc2ccc(OC)cc2)S(=O)(=O)NC(=O)c2ccc3c(c2)N(C[C@@H]2CC[C@H]21)C[C@@]1(CCCc2cc(Cl)ccc21)CO3 [Example 82, (1S,3′R,6′R,7′S,8′E,11′S)-6-chloro-12′-(4-methoxybenzyl)-7′-(2-methoxyethoxy)-11′-methyl-3,4-dihydro-2H,15′H-spiro[naphthalene-1,22′-[20]oxa[13]thia[1,12,14]triazatetracyclo[14.7.2.0^3,6.0^19,24]pentacosa[8,16,18,24]tetraen]-15′-one 13′,13′-dioxide] |  | 2920 nM | 7.8 nM | 
